# Reference: patent US9982017B2, “Synthetic apelin mimetics for the treatment of heart failure” (priority 2012, dated 2018)
# Where a SMILES comes first, the peptide text is derived from it. Bridges are numbered along the chain shown (N, C = ends). [ ]: non-standard residue; d: D form. The star is where a group is joined. Bip = N[C@@H](Cc1ccc(-c2ccccc2)cc1)C(=O)O; Palmitoyl = CCCCCCCCCCCCCCCC(=O)*; pGlu = O=C1CC[C@@H](C(=O)O)N1; Lauroyl = CCCCCCCCCCCC(=O)*; Nle = CCCC[C@H](N)C(=O)O; AEEA = NCCOCCOCC(=O)O
# Assay: in vitro
# Settings: rat, not told, Surrogate activity-based Plasma stability t½
# Protocol: The slope of this line, k, was determined by linear regression (Microsoft Excel). • Stability half-life was then calculated by the formula, t ½=0.693÷k Surrogate Activity-Based Plasma Stability Assay:
# The calcium flux protocol described above was followed, with the following changes. The peptides were also incubated with 5% rat plasma (Bioreclamation # [sequence]-M, Na Heparin-treated). Readings were taken at time points t0 and t24 hrs, after incubation in a 37° C. tissue culture incubator. Peptide plasma half-life in minutes was estimated by calculating the following:
# 2) Calculate slope of value above and
row,Compound,half-life
1,"CCCCCCCCCCCCCCCC(=O)NCCCC[C@@H]1NC(=O)[C@@H](NC(=O)[C@H](CC(C)C)NC(=O)[C@H](CCCNC(=N)N)NC(=O)[C@@H]2CCCN2C(=O)[C@H](CCCNC(=N)N)NC(=O)[C@@H]2CCC(=O)N2)CSSC[C@@H](C(=O)N[C@@H](Cc2ccccc2)C(=O)O)NC(=O)[C@H](CCCC)NC(=O)[C@@H]2CCCN2C(=O)CNC(=O)[C@H](CCCCN)NC1=O [Example 23, pE-R-P-R-L-C-K(Palmitoyl)-K-G-P-Nle-C-F-OH] ([pGlu]RPRLCK(Palmitoyl)KGP[Nle]CF-OH; disulfide 6-12)",> 16.7 h
2,"CCCCCCCCCCCC(=O)NCCOCCOCC(=O)N[C@@H](CCC(N)=O)C(=O)N[C@@H](CCCNC(=N)N)C(=O)N1CCC[C@H]1C(=O)N[C@@H](CCCNC(=N)N)C(=O)N[C@@H](CC(C)C)C(=O)N[C@H]1CSSC[C@@H](C(=O)N[C@@H](Cc2ccccc2)C(=O)O)NC(=O)[C@H](CCCC)NC(=O)[C@@H]2CCCN2C(=O)CNC(=O)[C@H](CCCCN)NC(=O)[C@H](Cc2c[nH]cn2)NC1=O [Example 25, Lauroyl-O2Oc-Q-R-P-R-L-C-H-K-G-P-Nle-C-F-OH] ({Lauroyl-AEEA}-QRPRLCHKGP[Nle]CF-OH; disulfide 6-12)",> 16.7 h
3,"CCCCCCCCCCCC(=O)NCCCC[C@H](NC(=O)[C@@H]1CSSC[C@H](NC(=O)[C@H](CC(C)C)NC(=O)[C@H](CCCNC(=N)N)NC(=O)[C@@H]2CCCN2C(=O)[C@H](CCCNC(=N)N)NC(=O)[C@@H]2CCC(=O)N2)C(=O)N[C@@H](Cc2c[nH]cn2)C(=O)N[C@@H](CCCCN)C(=O)NCC(=O)N2CCC[C@H]2C(=O)N[C@@H](CCCC)C(=O)N1)C(=O)O [Example 26, pE-R-P-R-L-C-H-K-G-P-Nle-C-K(Lauroyl)-OH] ([pGlu]RPRLCHKGP[Nle]CK(Lauroyl)-OH; disulfide 6-12)",> 16.7 h
4,"CCCCCCCCCCCC(=O)NCCCC[C@@H]1NC(=O)[C@@H](NC(=O)[C@H](CC(C)C)NC(=O)[C@H](CCCNC(=N)N)NC(=O)[C@@H]2CCCN2C(=O)[C@H](CCCNC(=N)N)NC(=O)[C@@H]2CCC(=O)N2)CSSC[C@@H](C(=O)N[C@@H](Cc2ccccc2)C(=O)O)NC(=O)[C@H](CCCC)NC(=O)[C@@H]2CCCN2C(=O)CNC(=O)[C@H](CCCCN)NC1=O [Example 27, pE-R-P-R-L-C-K(Lauroyl)-K-G-P-Nle-C-F-OH] ([pGlu]RPRLCK(Lauroyl)KGP[Nle]CF-OH; disulfide 6-12)",> 16.7 h
5,"CCCC[C@@H]1NC(=O)[C@@H]2CCCN2C(=O)CNC(=O)[C@H](CCCCN)NC(=O)[C@H](Cc2c[nH]cn2)NC(=O)[C@@H](NC(=O)[C@H](CC(C)C)NC(=O)[C@H](CCCNC(=N)N)NC(=O)[C@@H]2CCCN2C(=O)[C@H](Cc2ccccc2)NC(=O)[C@@H]2CCC(=O)N2)CSSC[C@@H](C(=O)N[C@@H](Cc2ccccc2)C(=O)O)NC1=O [Example 31, pE-F-P-R-L-C-H-K-G-P-Nle-C-F-OH] ([pGlu]FPRLCHKGP[Nle]CF-OH; disulfide 6-12)",> 16.7 h
6,"CCCC[C@@H]1NC(=O)[C@@H]2CCCN2C(=O)CNC(=O)[C@H](CCCCN)NC(=O)[C@H](Cc2c[nH]cn2)NC(=O)[C@@H](NC(=O)[C@H](CC(C)C)NC(=O)[C@H](CCCNC(=N)N)NC(=O)[C@H](CCCCN)NC(=O)[C@H](CCCNC(=N)N)NC(=O)[C@@H]2CCC(=O)N2)CSSC[C@@H](C(=O)N[C@@H](Cc2ccccc2)C(=O)O)NC1=O [Example 34, pE-R-K-R-L-C-H-K-G-P-Nle-C-F-OH] ([pGlu]RKRLCHKGP[Nle]CF-OH; disulfide 6-12)",8.42 h
7,"CCCC[C@@H]1NC(=O)[C@@H]2CCCN2C(=O)CNC(=O)[C@H](CCCCN)NC(=O)[C@H](Cc2c[nH]cn2)NC(=O)[C@@H](NC(=O)[C@H](CC(C)C)NC(=O)[C@H](CCCNC(=N)N)NC(=O)[C@H](CC(=O)O)NC(=O)[C@H](CCCNC(=N)N)NC(=O)[C@@H]2CCC(=O)N2)CSSC[C@@H](C(=O)N[C@@H](Cc2ccccc2)C(=O)O)NC1=O [Example 35, pE-R-D-R-L-C-H-K-G-P-Nle-C-F-OH] ([pGlu]RDRLCHKGP[Nle]CF-OH; disulfide 6-12)",> 16.7 h
8,"CCCC[C@@H]1NC(=O)[C@@H]2CCCN2C(=O)CNC(=O)[C@H](CCCCN)NC(=O)[C@H](Cc2c[nH]cn2)NC(=O)[C@@H](NC(=O)[C@H](CC(C)C)NC(=O)[C@H](Cc2ccccc2)NC(=O)[C@@H]2CCCN2C(=O)[C@H](CCCNC(=N)N)NC(=O)[C@@H]2CCC(=O)N2)CSSC[C@@H](C(=O)N[C@@H](Cc2ccccc2)C(=O)O)NC1=O [Example 36, pE-R-P-F-L-C-H-K-G-P-Nle-C-F-OH] ([pGlu]RPFLCHKGP[Nle]CF-OH; disulfide 6-12)",> 16.7 h
9,"CCCC[C@@H]1NC(=O)[C@@H]2CCCN2C(=O)[C@H](CC(=O)O)NC(=O)[C@H](CCCCN)NC(=O)[C@H](Cc2c[nH]cn2)NC(=O)[C@@H](NC(=O)[C@H](CC(C)C)NC(=O)[C@H](CCCNC(=N)N)NC(=O)[C@@H]2CCCN2C(=O)[C@H](CCCNC(=N)N)NC(=O)[C@@H]2CCC(=O)N2)CSSC[C@@H](C(=O)N[C@@H](Cc2ccccc2)C(=O)O)NC1=O [Example 39, pE-R-P-R-L-C-H-K-D-P-Nle-C-F-OH] ([pGlu]RPRLCHKDP[Nle]CF-OH; disulfide 6-12)",10.9 h
10,"CCCC[C@@H]1NC(=O)[C@@H]2CCCN2C(=O)CNC(=O)[C@H](CCCCN)NC(=O)[C@H](Cc2c[nH]cn2)NC(=O)[C@@H](NC(=O)[C@H](Cc2ccc(-c3ccccc3)cc2)NC(=O)[C@H](CCCNC(=N)N)NC(=O)[C@@H]2CCCN2C(=O)[C@H](CCCNC(=N)N)NC(=O)[C@@H]2CCC(=O)N2)CSSC[C@@H](C(=O)N[C@@H](Cc2ccccc2)C(=O)O)NC1=O [Example 41, pE-R-P-R-(4-PhF)-C-H-K-G-P-Nle-C-F-OH] ([pGlu]RPR[Bip]CHKGP[Nle]CF-OH; disulfide 6-12)",10.5 h
11,"CCCC[C@@H]1NC(=O)[C@@H]2CCCN2C(=O)CNC(=O)[C@H](CCCCN)NC(=O)[C@H](CCC(=O)O)NC(=O)[C@@H](NC(=O)[C@H](CC(C)C)NC(=O)[C@H](CCCNC(=N)N)NC(=O)[C@@H]2CCCN2C(=O)[C@H](CCCNC(=N)N)NC(=O)[C@@H]2CCC(=O)N2)CSSC[C@@H](C(=O)N[C@@H](Cc2ccccc2)C(=O)O)NC1=O [Example 43, pE-R-P-R-L-C-E-K-G-P-Nle-C-F-OH] ([pGlu]RPRLCEKGP[Nle]CF-OH; disulfide 6-12)",> 16.7 h

# Results, then the molecule that gave them:
row,half-life,Compound
1,> 16.7 h,"CCCC[C@@H]1NC(=O)[C@@H]2CCCN2C(=O)CNC(=O)[C@H](CCCCN)NC(=O)[C@H](Cc2c[nH]cn2)NC(=O)[C@@H](NC(=O)[C@H](CC(C)C)NC(=O)[C@H](CCCNC(=N)N)NC(=O)[C@@H]2CCCN2C(=O)[C@@H](CCCNC(=N)N)NC(=O)[C@@H]2CCC(=O)N2)CSSC[C@@H](C(=O)N[C@@H](Cc2ccccc2)C(=O)O)NC1=O [Example 30, pE-r-P-R-L-C-H-K-G-P-Nle-C-F-OH] ([pGlu][dR]PRLCHKGP[Nle]CF-OH; disulfide 6-12)"
2,> 16.7 h,"CCCC[C@@H]1NC(=O)[C@@H]2CCCN2C(=O)CNC(=O)[C@H](CCCCN)NC(=O)[C@H](Cc2c[nH]cn2)NC(=O)[C@@H](NC(=O)[C@H](CC(C)C)NC(=O)[C@H](CCCNC(=N)N)NC(=O)[C@@H]2CCCN2C(=O)[C@H](CCC(=O)O)NC(=O)[C@@H]2CCC(=O)N2)CSSC[C@@H](C(=O)N[C@@H](Cc2ccccc2)C(=O)O)NC1=O [Example 32, pE-E-P-R-L-C-H-K-G-P-Nle-C-F-OH] ([pGlu]EPRLCHKGP[Nle]CF-OH; disulfide 6-12)"
3,> 16.7 h,"CCCC[C@@H]1NC(=O)[C@@H]2CCCN2C(=O)CNC(=O)[C@H](CCCCN)NC(=O)[C@H](Cc2c[nH]cn2)NC(=O)[C@@H](NC(=O)[C@H](CC(C)C)NC(=O)[C@H](CCCNC(=N)N)NC(=O)[C@H]2CCCN2C(=O)[C@H](CCCNC(=N)N)NC(=O)[C@@H]2CCC(=O)N2)CSSC[C@@H](C(=O)N[C@@H](Cc2ccccc2)C(=O)O)NC1=O [Example 33, pE-R-p-R-L-C-H-K-G-P-Nle-C-F-OH] ([pGlu]R[dP]RLCHKGP[Nle]CF-OH; disulfide 6-12)"
4,2.74 h,"CCCC[C@@H]1NC(=O)[C@@H]2CCCN2C(=O)CNC(=O)[C@H](CCCCN)NC(=O)[C@H](Cc2c[nH]cn2)NC(=O)[C@@H](NC(=O)[C@H](CCCCN)NC(=O)[C@H](CCCNC(=N)N)NC(=O)[C@@H]2CCCN2C(=O)[C@H](CCCNC(=N)N)NC(=O)[C@@H]2CCC(=O)N2)CSSC[C@@H](C(=O)N[C@@H](Cc2ccccc2)C(=O)O)NC1=O [Example 37, pE-R-P-R-K-C-H-K-G-P-Nle-C-F-OH] ([pGlu]RPRKCHKGP[Nle]CF-OH; disulfide 6-12)"
5,> 16.7 h,"CCCC[C@@H]1NC(=O)[C@@H]2CCCN2C(=O)CNC(=O)[C@H](CCC(=O)O)NC(=O)[C@H](Cc2c[nH]cn2)NC(=O)[C@@H](NC(=O)[C@H](CC(C)C)NC(=O)[C@H](CCCNC(=N)N)NC(=O)[C@@H]2CCCN2C(=O)[C@H](CCCNC(=N)N)NC(=O)[C@@H]2CCC(=O)N2)CSSC[C@@H](C(=O)N[C@@H](Cc2ccccc2)C(=O)O)NC1=O [Example 38, pE-R-P-R-L-C-H-E-G-P-Nle-C-F-OH] ([pGlu]RPRLCHEGP[Nle]CF-OH; disulfide 6-12)"
6,> 16.7 h,"CCCC[C@@H]1NC(=O)[C@@H]2CCCN2C(=O)CNC(=O)[C@H](CCCCN)NC(=O)[C@H](Cc2c[nH]cn2)NC(=O)[C@@H](NC(=O)[C@H](CC(C)C)NC(=O)[C@H](CCC(=O)O)NC(=O)[C@@H]2CCCN2C(=O)[C@H](CCCNC(=N)N)NC(=O)[C@@H]2CCC(=O)N2)CSSC[C@@H](C(=O)N[C@@H](Cc2ccccc2)C(=O)O)NC1=O [Example 40, pE-R-P-E-L-C-H-K-G-P-Nle-C-F-OH] ([pGlu]RPELCHKGP[Nle]CF-OH; disulfide 6-12)"
7,> 16.7 h,"CCCC[C@@H]1NC(=O)[C@@H]2CCCN2C(=O)CNC(=O)[C@H](CCCCN)NC(=O)[C@H](Cc2c[nH]cn2)NC(=O)[C@@H](NC(=O)[C@H](CC(=O)O)NC(=O)[C@H](CCCNC(=N)N)NC(=O)[C@@H]2CCCN2C(=O)[C@H](CCCNC(=N)N)NC(=O)[C@@H]2CCC(=O)N2)CSSC[C@@H](C(=O)N[C@@H](Cc2ccccc2)C(=O)O)NC1=O [Example 42, pE-R-P-R-D-C-H-K-G-P-Nle-C-F-OH] ([pGlu]RPRDCHKGP[Nle]CF-OH; disulfide 6-12)"
8,14.3 h,"CCCC[C@@H]1NC(=O)[C@@H]2CCCN2C(=O)[C@H](CC(C)C)NC(=O)[C@H](CCCCN)NC(=O)[C@H](Cc2c[nH]cn2)NC(=O)[C@@H](NC(=O)[C@H](CC(C)C)NC(=O)[C@H](CCCNC(=N)N)NC(=O)[C@@H]2CCCN2C(=O)[C@H](CCCNC(=N)N)NC(=O)[C@@H]2CCC(=O)N2)CSSC[C@@H](C(=O)N[C@@H](Cc2ccccc2)C(=O)O)NC1=O [Example 44, pE-R-P-R-L-C-H-K-L-P-Nle-C-F-OH] ([pGlu]RPRLCHKLP[Nle]CF-OH; disulfide 6-12)"
